# According to US20230330004A1, “COMPOSITION COMPRISING GINSENG EXTRACT FOR REFORMING SKIN MICROBIOTA” (KOREA GINSENG CORP., priority 2020, published 2023):
# What was measured:
# [1] = system: Staphylococcus epidermidis; test: Growth of beneficial skin microbes, absorbance at 600 nm (Experimental Example 2); assay type: cell-based; details: for Effect of selectively promoting the growth of beneficial microbes rather than harmful microbes (in words): S. epidermidis versus S. aureus, from Table 2; for Effect of promoting the growth of beneficial microbes (in words): S. epidermidis, compared to the composition of the present invention; for OD600 (Beneficial microbes): Staphylococcus epidermidis, incubated 24 hours in shaking incubator, absorbance at 600 nm; for Increase in beneficial microbes versus harmful microbes: ratio of OD600 S. epidermidis / S. aureus, 24 hours
# Method: (§1) To compare the compositions of Example and Comparative Examples in terms of the increase in growth of beneficial skin microbes versus harmful skin microbes, the growth of each microbe was measured by the same method as described in Experimental Example 1. Specifically, using Staphylococcus epidermidis as beneficial skin microbes, and Staphylococcus aureus (Strain number 39149, Korean Collection for Type Cultures) as harmful skin microbes, samples were inoculated respectively and incubated for 24 hours in a shaking incubator. Solutions with the strains grown therein were each collected and centrifuged, and after removing the supernatant therefrom, an equivalent amount of a saline solution was added to prepare a bacterial solution.
# [2] = system: Staphylococcus aureus (Strain number 39149, Korean Collection for Type Cultures); test: Growth of harmful skin microbes, absorbance at 600 nm (Experimental Example 2); assay type: cell-based; details: incubated 24 hours in shaking incubator
# Method: as §1
Compound,Effect of selectively promoting the growth of beneficial microbes rather than harmful microbes (in words) [1],Effect of promoting the growth of beneficial microbes (in words) [1],OD600 (Beneficial microbes) [1],Increase in beneficial microbes versus harmful microbes [1],OD600 (Harmful microbes) [2]
"CC(=O)N[C@H]1[C@H]([C@H](O)[C@H](O)CO)O[C@@](OC[C@H]2O[C@@H](O[C@H]3[C@H](O)[C@@H](O)C(O)O[C@@H]3CO)[C@H](O)[C@@H](O)[C@H]2O)(C(=O)O)C[C@@H]1O (stereo partly shown) [Comparative Example 3, 6-Sialyllactose]",low,negligible,0.047,×0.723,0.065
3-Sialyllactose [Comparative Example 2],low,negligible,0.049,×0.636,0.077
